Laboratory results reported in patent US20150004620A1, “METHOD OR DEVICE FOR IDENTIFYING INHIBITOR OF EPITHELIAL MESENCHYMAL TRANSITION” (Agency for Science, Technology and Research, priority 2011, published 2015).

Columns and labels:
Format in all cases: cell-based
[1] = system: EGF-induced EMT in NBT-II cells; experiment: EMT spot migration assay, EGF-induced; conditions: EGF-induced EMT (20 ng/ml EGF), NBT-II cells, CDR dose response from 6.67 μM; read-out: Cell Dispersion IC 50, EGF
Procedure: (§1) NBT-II cells were stably transfected with mcherry-fluorescent H2B and maintained in DMEM supplemented with 10% fetal bovine serum (FBS, Thermo Scientific), 1 μg/ml puromycin (Sigma) and 100 units/ml penicillin-streptomycin (1× pen-strep, Invitrogen). Cells were grown to 80% confluency in tissue culture flasks prior to plating. Cells were trypsinized and concentrated to a density of 5×10^6 cell/ml in CO2-independent medium (Invitrogen) supplemented with 10% FBS. The cell suspension was then evenly dispersed into the wells of two columns of a 96-well V-bottom plate. Using a robotic liquid-handling station (Bravo, Agilent Technologies), 0.5 μl of cell suspension was transferred from the two columns of the cell suspension-loaded plate and deposited into the center of the wells of two columns of a 96-well clear bottom, black assay plate (Corning). This process was repeated six times so that all 96 wells of the assay plate were deposited with a cell suspension spot. The plate was then sealed to minimize evaporation of the cell suspension spots and transferred to a 37° C., 5% CO2 incubator to allow for cells to attach to the culture surface. After 1 hour, the plate was gently washed with medium once to remove unattached cells, refreshed with 100 μl of assay medium (DMEM supplemented with 10% FBS and 1× pen-strep), and then further incubated to allow for cell-cell contacts to establish in the cell colonies.
(§2) Four tiled, non-overlapping images were acquired around the center of each well, and were then stitched together during image analysis to generate a montage covering an area of 3.2 mm×3.2 mm. These images (T1) represent the initial state of the cell colonies before EMT induction.
(§3) After the T1 images were acquired, 1 μl of test compounds were transferred from compound stock plates and added to the assay plates. Appropriate negative controls (1 μl DMSO) and positive controls (1 μl 1.0 mM compound in DMSO) were also added into columns 1 and 12 of each assay plate, respectively. […] The cultures were then further incubated overnight.
(§4) The next day, 50 μl of growth factor-containing medium was added to each well of the assay-plates. For each of the growth factor-induced EMT spot migration assays, the final growth factor concentrations in each well is optimized to be 20 ng/ml EGF (Sigma), 4 ng/ml HGF (Calbiochem) or 150 ng/ml IGF-1 (R&D Systems), respectively. The cultures were then incubated for another 24 hours, to allow for EMT and sufficient cell motility/dispersion to occur in the cell colonies.
(§5) Finally, the cell colonies were imaged again using the microplate imager, as described above. These images (T2) represent the final state of the cell colonies after compound treatment and EMT induction. The acquired T1 and T2 image sets for each assay plate were then sent for image analysis.
(§6) The acquisition of each well was obtained by four adjacent field images with no interstice in between. Each field image was loaded and nuclei were initially segmented independently of other fields to prevent artifact at the field border. Nuclei segmentation was achieved by combining a wavelet transform which is robust to noise and unhomogeneous background, and a watershed algorithm based on intensities to split nuclei clusters. Mask of nuclei segmentation of the different fields were then stitched together in order to obtain a large segmentation of the whole well. Cell bodies were estimated by applying a morphological dilation on the nucleus segmentation using a disk of 30 pixels (48 μm) in diameter. In cells that are contiguous, such as in a cell colony, nuclei segmentation dilation will result in the formation of continuous region areas with surrounding cells which can then be identified as colonies.
(§7) Total cell number and spreading coefficient values for each well were then exported into an Excel sheet.

[2] = system: ovarian carcinoma cell lines; experiment: Cell movement tracking time-lapse videoscopy; conditions: 2 μM for 48 hours, tracked for 24 hours
Procedure: Cells were maintained in RMPI supplemented with 10% fetal bovine serum and 1× pen-strep. Cells were grown to 80% confluency in tissue culture flasks prior to plating. Cells were trysinized and plated onto a 12-well plate (BD) at a low density of 2000 cells per well in 1 ml of RMPI. Each ovarian cell line was seeded into two wells of a 12 well tissue culture plate. For each ovarian cell line, one of the two wells was treated with 2 μM AZD0530 and the other well treated with 0.02% DMSO control for 48 hours. Cells were imaged using a time-lapse video microscope incubator system (Leica) controlled by Metamorph software (Molecular Devices). Time-lapse images were taken at 5 min intervals for 24 hours and saved as tiff format. Each individual tiff images were compiled into stack images using the stack creation function in Metamorph. Each cell was tracked using the particle tracking function in Metamorph software. The tracking function detected and recorded the x and y coordinates of the cell being tracked for each image in the stack. The x and y coordinates were used to plot the track of the individual cell in excel. The total distance travelled, displacement and average velocity of the tracked cell were then tabulated.

[3] = system: IGF-1-induced EMT in NBT-II cells; experiment: EMT spot migration assay, IGF-1-induced; conditions: IGF-1-induced EMT (150 ng/ml IGF-1), CDR dose response from 6.67 μM, read-out: Cell Dispersion IC 50, IGF-1
Procedure: as §1, §2, §3, §4, §5, §6, §7

[4] = system: ovarian carcinoma cell lines; experiment: Phase contrast cell morphology, ovarian carcinoma cell lines; conditions: A2780J, DOV13 and HEY cell lines, 2 μM for 48 hours vs 0.02% DMSO
Procedure: Cell lines were treated with 2 μM AZD0530 or 0.02% DMSO control for 48 hours. Scale bar is 200 μm. Thus, FIG. 9 provides an example of how the method as described herein may be validated by the use of various ovarian carcinoma cell lines.

[5] = panel of ovarian carcinoma cell lines

- IC50 [1]: 0.56 µM
- IC50 [3]: 0.24 µM
SMILES: CN1CCN(CCOc2cc(OC3CCOCC3)c3c(Nc4c(Cl)ccc5c4OCO5)ncnc3c2)CC1 [AZD0530]
- Mobility (individual cell tracks) ([2]; ovarian carcinoma cell lines): suppression of the mobility
- Average displacement cells migrate [2, 5]: decrease
- Average velocity of cell migrations [2, 5]: decrease
- Cell morphology (phase contrast) [4]: compaction of cell morphology
